# Measurements reported in US20250268903A1, “RXFP1 AGONISTS” (BRISTOL-MYERS SQUIBB COMPANY, priority 2021, published 2025).
# Biological target: T1, human RXFP1 (Homo sapiens, UniProt Q9HBX9)
# T1 construct: expressed in transfected cells
# T1 sequence (Q9HBX9 1-757): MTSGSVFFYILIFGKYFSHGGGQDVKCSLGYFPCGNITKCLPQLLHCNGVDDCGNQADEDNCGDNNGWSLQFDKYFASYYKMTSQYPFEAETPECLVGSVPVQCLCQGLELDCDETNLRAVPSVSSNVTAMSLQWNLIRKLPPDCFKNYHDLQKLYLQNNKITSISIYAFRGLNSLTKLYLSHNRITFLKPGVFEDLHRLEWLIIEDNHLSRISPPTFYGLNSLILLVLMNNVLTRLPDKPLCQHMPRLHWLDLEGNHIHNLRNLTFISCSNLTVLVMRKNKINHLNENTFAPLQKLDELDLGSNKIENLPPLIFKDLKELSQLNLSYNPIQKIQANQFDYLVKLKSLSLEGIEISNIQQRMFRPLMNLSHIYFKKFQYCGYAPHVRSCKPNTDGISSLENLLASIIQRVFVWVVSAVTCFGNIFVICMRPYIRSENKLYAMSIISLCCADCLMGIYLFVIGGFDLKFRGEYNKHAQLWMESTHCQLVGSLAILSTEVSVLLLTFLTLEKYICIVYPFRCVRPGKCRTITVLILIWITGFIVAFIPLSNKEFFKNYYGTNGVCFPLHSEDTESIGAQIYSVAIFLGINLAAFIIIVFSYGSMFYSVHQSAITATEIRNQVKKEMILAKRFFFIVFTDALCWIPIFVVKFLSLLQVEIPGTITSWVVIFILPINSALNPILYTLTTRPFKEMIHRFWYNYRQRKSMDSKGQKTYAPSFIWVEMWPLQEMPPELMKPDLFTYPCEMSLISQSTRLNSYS
# Experiment: hRXFP1 HEK293 cAMP assay (HTRF)
# Type: cell-based
# Settings: HEK293 cells stably expressing human RXFP1, 30 min at room temperature
# Procedure, shortened: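 HEK293 cells stably expressing human RXFP1 (1500 cells/well) in HBSS/20 mM HEPES/0.05% BSA/0.5 mM IBMX. Compounds were tested at 0.010 nM–50 μM final (2% DMSO) for 30 min at room temperature. cAMP was measured by HTRF and values derived by 4-parameter logistic fit.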
row,Compound,EC50 [nM]
1,"COc1ccc(CCC2CCOCC2)cc1C(=O)NC1C2CCC(/C2=C/C(F)(F)F)[C@@H]1C(=O)Nc1ccc(F)c(C(F)(F)F)c1 (stereo partly drawn) [Example 180, (7Z)-N-[4-fluoro-3-(trifluoromethyl)phe-nyl]-3-{2-methoxy-5-[2-(oxan-4-yl)ethyl]benzamido}-7-(2,2,2-trifluoroethylidene)bi-cyclo[2.2.1]heptane-2-carboxamide]",168
2,"COc1ccc(C2CC2CO)cc1C(=O)N[C@@H]1C2CCC(/C2=C/C(F)(F)F)[C@@H]1C(=O)Nc1ccc(F)c(C(F)(F)F)c1 (single isomer, unassigned) [Example 64]",252
3,"COc1ccc(COCC(=O)O)cc1C(=O)N[C@@H]1C2CCC(/C2=C/c2ccccc2)[C@@H]1C(=O)Nc1ccc(F)c(C(F)(F)F)c1 (stereo partly drawn) [Example 29, 2-[(3-{[(2R,3S,7Z)-3-{[4-fluoro-3-(trifluoromethyl)phe-nyl]carbamoyl}-7-(phenylmethylidene)bicyclo[2.2.1]heptan-2-yl]carbamoyl}-4-methoxyphenyl)meth-oxy]acetic acid]",400

# More lines, now with the values ahead:
row,EC50 [nM],Compound
1,4.16,"COc1ccc(C(=O)N2CCC(S(C)(=O)=O)C2)cc1C(=O)N[C@H]1[C@@H](C(=O)Nc2ccc(F)c(C(F)(F)F)c2)[C@H]2CC[C@@H]1/C2=C\C1CC1 (stereo partly drawn) [Example 252, (1R,2S,3R,4R,7Z)-7-(cyclopropyl-methylidene)-N-[4-fluoro-(trifluoromethyl)phenyl]-3-[5-(3-methanesulfonyl-pyrrolidine-1-carbonyl)-2-methoxybenzamido] bicyclo[2.2.1] heptane-2-carboxamide]"
2,78.5,"COc1ccc(C2CC3CC(O)CC32)cc1C(=O)N[C@H]1[C@@H](C(=O)Nc2ccc(F)c(C(F)(F)F)c2)[C@H]2CC[C@@H]1/C2=C\C1CC1 (single isomer, unassigned) [Example 340]"

# Tested on: not given
# Experiment: not given
# Settings: intravenous (IV) formulation; cited from earlier work
row,Compound,first-phase pharmacokinetic half-life [min]
1,"Serelaxin: ""an intravenous (IV) formulation of the recombinant human relaxin peptide with a relatively short first-phase pharmacokinetic half-life of 0.09 hours""",5.4
